Measured values taken from US6828139B2, “Production of replicative hepatitis C virus” (priority 2000, dated 2004).
Where a name gives a salt, the structure may show the parent alone.

System: HCV (−) RNA synthesis
Assay: HCV (−) strand RNA synthesis in the inducible HCV replication system, RNase protection assay
Assay type: cell-based, hepatitis C virus (genotype 1a, strain H77) in CV-1 cells
Parameters: inhibitory effect on HCV (−) RNA synthesis: dose or concentration left out as unconfirmed
Conditions: for results on HCV (−) RNA synthesis with changed time of addition: drug given 0 and 12 hours before vTF7-3 infection, compared with 20 hours

Structure (SMILES): NC12CC3CC(CC(C3)C1)C2 [amantadine, Amantadine-HCl]
- activity against HCV (−) strand synthesis (amantadine 1-100 μg/well, added 20 hours prior to vTF7-3 infection): no activity
- results on HCV (−) RNA synthesis with changed time of addition: unchanged

Structure (SMILES): NC(=O)c1ncn([C@@H]2O[C@H](CO)[C@@H](O)[C@H]2O)n1 [ribavirin]
- results on HCV (−) RNA synthesis with changed time of addition: unchanged
- inhibitory effect on HCV (−) RNA synthesis (ribavirin, added 20 hours prior to vTF7-3): No inhibitory effect
